One data set relates to Ba/F3-BCR-ABL1-WT cells. In words: Ba/F3-BCR-ABL1-WT cellular proliferation assay. Format: cell-based, murine. As to conditions: Mus musculus, read-out: Ba/F3-BCR-ABL1-WT IC50.
Data set [1] in a line: Compound concentration in mouse brain and plasma. Format: in vivo. As to conditions: 5 minutes after a single intravenous injection of 1 mg/kg in mice; for concentration at 5 min / Kp at 5 min: mouse; for concentration at 5 min: plasma, read-out: Mean blood (drug concentration in plasma); for Kp at 5 min: brain/plasma, read-out: Mean Ratio (brain/plasma).
Protocol: Approximately two parts volume of MeOH/water (2/8 v/v) were added to the preweighted brain samples (˜250 mg) and subsequently homogenized using Covaris™ instrument. A 50 μL aliquot was subjected to protein precipitation and analysis as described below.
Fifty μL aliquots of blood or brain homogenate from animals treated with c-ABL inhibitors were first spiked with 5 μL of the internal standard (N-(4-methyl-3-((4-(6-methylpyridin-3-yl)pyrimidin-2-yl)amino)phenyl)-4-((4-methylpiperazin-1-yl)methyl)benzamide for positive ion mode 5-chloro-N-(4-(N-(cyclohexylcarbamoyl)sulfamoyl)-phenethyl)-2-methoxybenzamide for negative ion mode, respectively), subsequently deproteinated by adding MeCN (200 μL), centrifuged, the supernatant evaporated to dryness, and re-dissolved in 100 μL of a MeOH/water (1/1 v/v). Five μL were subjected to HPLC-MS/MS analysis. Chromatographic separation from interfering endogenous and exogenous contaminants was achieved on an Phenomenex™ Polar RP reversed-phase HPLC column (particle size: 2.5 μm; column dimensions: 2×50 mm) using a linear gradient of 100% water containing 1% formic acid (A), and MeOH supplemented with 1% formic acid (B), which was run over 6.0 min from 5% to 90% B, then kept at 100% B for 1.0 min, and a subsequent 1.5 min postrun with re-equilibration of the column. The column was kept at 50° C. The flow of 350 μL/min from the HPLC system (Flux Rheos Allegro LC pump and CTC Pal autosampler) was directly introduced into the ion source of an Finnigan™ Quantum Ultra MS-detector (triple stage quadrupole mass analyzer) and subjected to heated electrospray ionization (HESI).
c-ABL inhibitors were specifically detected using multiple reaction monitoring from their quasi-molecular parent ion ([M+H]^+ or [M−H]^−) to specific daughter ions as given in the table below. Quantification of blood and brain levels of c-ABL inhibitors compounds were based on a 6-level calibration curve made in triplicate.
Data set [2] concerns the target T1, ABL1 (64-515) (Homo sapiens (Human), UniProt P00519). In words: Radio ABL1 (64-515) assay (radiometric filter-binding). The format is biochemical.
Protocol: For determination of ABL kinase activity, the radiometric filter-binding assay was used. […] Pre-incubation of enzyme with compounds (when stated) was performed by exposing the enzyme to compounds prior to addition of the substrate mixture (ATP and/or peptide substrate). […] Millipore, Volketswil, Switzerland) prepared according to the manufacturer's instructions. Filter-plates were washed 3× with 0.5% H3PO4, followed by addition of 30 μL scintillation cocktail (Microscint, Perkin Elmer) per well and then analysed in a TopCount NXT scintillation counter (Perkin Elmer). Results were expressed as IC50 values.
For data set [3], the target named is T1, ABL1 (64-515). In words: Caliper ABL1 (64-515) assay (microfluidic mobility shift). The format is biochemical.
Protocol: All assays were performed in 384-well microtiter plates. Each assay plate contained 8-point serial dilutions for 40 test compounds, as well as four 8-point serial dilutions of staurosporine as a reference compound, plus 16 high and 16 low controls. Liquid handling and incubation steps were done on a Thermo CatX workstation equipped with Innovadyne Nanodrop Express. Between pipetting steps, tips were cleaned in wash cycles using wash buffer.
The assay plates were prepared by addition of 50 nL per well of compound solution in 90% DMSO. […] Plates with terminated kinase reactions were transferred to the Caliper LC3000 workstations for reading. Phosphorylated and unphosphorylated peptides were separated using the Caliper microfluidic mobility shift technology. Briefly, samples from terminated kinase reactions were applied to the chip. Analytes are transported through the chip by constant buffer flow and the migration of the substrate peptide is monitored by the fluorescence signal of its label. Phosphorylated peptide (product) and unphosphorylated peptide (substrate) are separated in an electric field by their charge/mass ratio. Kinase activities were calculated from the amounts of formed phospho-peptide. IC50 values were determined from percent inhibition values at different compound concentrations by non-linear regression analysis.
Test compounds were dissolved in DMSO (10 mM) and transferred into 1.4 mL flat bottom or V-shaped Matrix tubes carrying a unique 2D matrix. The stock solutions were stored at +2° C. if not used immediately. For the test procedure the vials were defrosted and identified by a scanner whereby a working sheet was generated that guided the subsequent working steps.
Compound dilutions were made in 96-well plates. This format enabled the assay of maximally 40 individual test compounds at 8 concentrations (single points) including 4 reference compounds. The dilution protocol included the production of “pre-dilution plates”, “master plates” and “assay plates”.
Polypropylene 96-well plates were used as pre-dilution plates. […] All dilution steps were done on a HamiltonSTAR robot.
These plates were used directly for the assay which was performed in a total volume of 9.05 μL.

Each structure is given as a SMILES string. Like-named read-outs stand apart in the source and are kept apart here.

T1 sequence (P00519 64-515): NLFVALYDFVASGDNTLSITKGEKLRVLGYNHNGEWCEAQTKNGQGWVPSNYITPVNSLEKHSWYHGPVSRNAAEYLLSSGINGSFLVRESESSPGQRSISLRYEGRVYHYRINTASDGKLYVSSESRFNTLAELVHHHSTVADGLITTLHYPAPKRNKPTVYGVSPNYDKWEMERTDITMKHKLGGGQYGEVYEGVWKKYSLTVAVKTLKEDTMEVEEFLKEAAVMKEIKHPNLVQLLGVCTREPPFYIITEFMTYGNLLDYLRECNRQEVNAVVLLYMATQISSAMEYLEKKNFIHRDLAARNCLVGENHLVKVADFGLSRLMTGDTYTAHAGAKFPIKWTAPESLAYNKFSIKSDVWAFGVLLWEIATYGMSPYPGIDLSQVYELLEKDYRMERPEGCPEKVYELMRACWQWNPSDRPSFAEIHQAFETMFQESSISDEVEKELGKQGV
Description for Ba/F3-BCR-ABL1-WT cells: The murine bone marrow-derived cell line Ba/F3 was used to generate the appropriate cell line models. Ba/F3 cells were obtained from the German Collection of Microorganisms and Cell Cultures (DSMZ, Braunschweig and DSMZ No. ACC 300). […] These cells are referred to as Ba/F3-WT.
To generate Ba/F3 cells that depend on BCR-ABL1 expression for growth and survival, Ba/F3 cells were engineered to express BCR-ABL1 using retroviral transduction with a MSCV based retroviral vector containing a p210 BCR-ABL1expression cassette. […] These cells are referred to as Ba/F3-BCR-ABL1-WT.
Ba/F3-WT cells were maintained in RPMI1640 media with L-glutamine, HEPES (Lonza), 10% FBS (Gibco) and 5 ng/ml IL-3 (Calbiochem).
For each cell line, the cell density was adjusted to 50 000 cells/mL and 50 μL (2500 cells) added per well of a 384-well assay plate.
Test compounds were resuspended in DMSO at a concentration of 10 mM. A serial three-fold dilution of each compound with DMSO was performed in 384-well plates using the Janus Liquid Dispenser (PerkinElmer). Compound was delivered to the assay plates containing 2500 cells in a 50 μL volume via Acoustic delivery from an ATS-100 (EDC).
Cells were incubated at 37° C. in a humidified environment with 5% carbon dioxide for 48 hours. Britelite plus solution (Perkin Elmer) was prepared according to the manufacturer's instructions and 25 μL added to each well of the assay plate. […] The degree of luminescence correlates with the number of cells in each well. The effect of each inhibitor concentration can therefore be calculated and IC50 values generated.

For `O=C(Nc1ccc(OC(F)(F)F)cc1)c1cccc(-c2cncnc2)c1` [Example 1, 3-(Pyrimidin-5-yl)-N-(4-(trifluoromethoxy)phenyl)benzamide], in the data set on Ba/F3-BCR-ABL1-WT cells (48 h), the IC50 was 150 nM. In data set [1], the “Mean brain (drug concentration in brain)” value amounted to 4946 pmol/g and the concentration at 5 min is 1160 nM.
Take `COC(=O)c1cc(-c2cccc(C(=O)Nc3ccc(OC(F)(F)F)cc3)c2)cs1` [Example 6, Methyl 4-(3-((4-(trifluoromethoxy)phenyl)carbamoyl)phenyl)thiophene-2-carboxylate]: the IC50 came out at 1060 nM with Ba/F3-BCR-ABL1-WT cells (48 hours) and 3.3 nM at ABL1 (64-515) [2].
On to `O=C(Nc1ccc(OC(F)(F)F)c(F)c1)c1cccc(-c2cncnc2)c1` [Example 9, N-(3-Fluoro-4-(trifluoromethoxy)phenyl)-3-(pyrimidin-5-yl)benzamide], for which the IC50 was 89 nM in the data set on Ba/F3-BCR-ABL1-WT cells (48 hours) and 22 nM on ABL1 (64-515) [2].
As for `O=C(Nc1ccc(CC(F)(F)F)cc1)c1cccc(-c2cncnc2)c1` [Example 12, 3-(Pyrimidin-5-yl)-N-(4-(2,2,2-trifluoroethyl)phenyl)benzamide], the IC50 in the data set on Ba/F3-BCR-ABL1-WT cells (48 hours) is 148 nM.
For the compound `COc1ncc(-c2cc(C(=O)Nc3ccc(OC(F)(F)F)cc3)ccc2C)cn1` [Example 13, 3-(2-Methoxypyrimidin-5-yl)-4-methyl-N-(4-(trifluoromethoxy)phenyl)benzamide], the IC50 with Ba/F3-BCR-ABL1-WT cells (48 hours) was 4.9 nM. In data set [1], the “Mean brain (drug concentration in brain)” value turned out to be 4011 pmol/g, the Kp at 5 min was 1.29 and the concentration at 5 min came out at 3090 nM. The IC50 on ABL1 (64-515) [2] was determined as 3 nM.
For `Cc1ccc(C(=O)Nc2ccc(OC(F)(F)F)cc2)cc1-c1cccnc1` [Example 15, 4-Methyl-3-(pyridin-3-yl)-N-(4-(trifluoromethoxy)phenyl)benzamide] the same measures were 11 nM, 6847 pmol/g, 3.2, 2140 nM and 4 nM.
For `Cc1ccc(C(=O)Nc2ccc(OC(F)(F)F)cc2)cc1-c1cncs1` [Example 17, 4-Methyl-3-(thiazol-5-yl)-N-(4-(trifluoromethoxy)phenyl)benzamide] the same measures were 27 nM, 6985 pmol/g, 2.3, 3030 nM and 3 nM.
Turning to `O=C(Nc1ccc(OC(F)(F)F)cc1)c1ccc(F)c(-c2cc[nH]n2)c1` [Example 23, 4-fluoro-3-(1H-pyrazol-3-yl)-N-(4-(trifluoromethoxy)phenyl)benzamide], the IC50 in the data set with Ba/F3-BCR-ABL1-WT cells (48 hours) was determined as 693 nM; on ABL1 (64-515) [2], 31 nM.
For `COc1ccc(C(=O)Nc2ccc(OC(F)(F)F)cc2)cc1-c1cc[nH]n1` [Example 34, 4-methoxy-3-(1H-pyrazol-3-yl)-N-(4-(trifluoromethoxy)phenyl)benzamide], in that order: 77 nM and 13 nM.
`O=C(Nc1ccc(OC(F)(F)F)cc1)c1cncc(-c2cncnc2)c1` [Example 42, 5-(Pyrimidin-5-yl)-N-(4-(trifluoromethoxy)phenyl)nicotinamide]: the IC50 with Ba/F3-BCR-ABL1-WT cells (48 h) came to 29 nM.
In the case of `Cc1ncc(C(=O)Nc2ccc(OC(F)(F)F)cc2)cc1-c1cncnc1` [Example 43, 6-Methyl-5-(pyrimidin-5-yl)-N-(4-(trifluoromethoxy)phenyl)nicotinamide], the figures for the IC50 with Ba/F3-BCR-ABL1-WT cells (48 hours), on ABL1 (64-515) [2] and at ABL1 (64-515) [3] were 10 nM, 3 nM and 2.3 nM, respectively.
Take `N#CC1(c2ncc(C(=O)Nc3ccc(OC(F)(F)F)cc3)cc2-c2cncnc2)CCOCC1` [Example 46, 6-(4-Cyanotetrahydro-2h-pyran-4-yl)-5-(pyrimidin-5-yl)-N-(4-(trifluoromethoxy)phenyl)nicotinamide]: the IC50 on ABL1 (64-515) [3] stood at 6.6 nM.
Regarding `COc1ncc(C(=O)Nc2ccc(OC(F)(F)F)cc2)cc1-c1cncnc1` [Example 49, 6-Methoxy-5-(pyrimidin-5-yl)-N-(4-(trifluoromethoxy)phenyl)nicotinamide], the figures for the IC50 with Ba/F3-BCR-ABL1-WT cells (48 hours) and on ABL1 (64-515) [2] were 47 nM and less than 3 nM, respectively.
For the compound `COCCOc1ncc(C(=O)Nc2ccc(OC(F)(F)F)cc2)cc1-c1cncnc1` [Example 51, 6-(2-Methoxyethoxy)-5-(pyrimidin-5-yl)-N-(4-(trifluoromethoxy)phenyl)nicotinamide], the figures for the IC50 at ABL1 (64-515) [2] and on ABL1 (64-515) [3] were 63 nM and 51 nM, respectively.
For `O=C(Nc1ccc(OC(F)(F)F)cc1)c1cnc(OC2CCOCC2)c(-c2cncnc2)c1` [Example 53, 5-(Pyrimidin-5-yl)-6-((tetrahydro-2h-pyran-4-yl)oxy)-N-(4-(trifluoromethoxy)phenyl)nicotinamide], in that order: 8.9 nM and 22 nM.
For `O=C(Nc1ccc(OC(F)(F)F)cc1)c1cc(-c2cncnc2)ccc1F` [Example 59, 2-Fluoro-5-(pyrimidin-5-yl)-N-(4-(trifluoromethoxy)phenyl)benzamide] the same measures were 20 nM and 93 nM.
For `Nc1ncc(-c2cncc(C(=O)Nc3ccc(OC(F)(F)F)cc3)c2)cn1` [Example 61, 5-(2-Aminopyrimidin-5-yl)-N-(4-(trifluoromethoxy)phenyl)nicotinamide] the same measures were 3.5 nM and 31.5 nM.
`O=C(Nc1ccc(OC(F)(F)F)cc1)c1cncc(-c2cnn(CCO)c2)c1` [Example 64, 5-(1-(2-Hydroxyethyl)-1H-pyrazol-4-yl)-N-(4-(trifluoromethoxy)phenyl)nicotinamide]: the figures for the IC50 on ABL1 (64-515) [2] and on ABL1 (64-515) [3] were 114 nM and 200 nM, respectively.
In the case of `O=C(Nc1ccc(OC(F)(F)F)cc1)c1cnc(Cl)c(-c2ncc[nH]2)c1` [Example 65, 6-Chloro-5-(1H-imidazol-2-yl)-N-(4-(trifluoromethoxy)phenyl)nicotinamide], the IC50 in the data set with Ba/F3-BCR-ABL1-WT cells (48 hours) is 184 nM; on ABL1 (64-515) [2] it was 5 nM.
Take `O=C(Nc1ccc(OC(F)(F)F)cc1)c1cccc(-c2cncnc2)n1` [Example 73, 6-(Pyrimidin-5-yl)-N-(4-(trifluoromethoxy)phenyl)picolinamide]: the IC50 was 1870 nM in the data set with Ba/F3-BCR-ABL1-WT cells (48 hours), 684 nM on ABL1 (64-515) [2] and 540 nM at ABL1 (64-515) [3].
Regarding `O=C(Nc1ccc(OC(F)(F)F)cc1)c1cncc(-c2cccnc2)c1` [Example 74, N-(4-(Trifluoromethoxy)phenyl)-[3,3′-bipyridine]-5-carboxamide], in the data set with Ba/F3-BCR-ABL1-WT cells (48 hours), the IC50 came out at 30 nM. In addition, in data set [1], the “Mean brain (drug concentration in brain)” value stood at 8509 pmol/g, the Kp at 5 min was determined as 3.29 and the concentration at 5 min turned out to be 2580 nM. The IC50 on ABL1 (64-515) [2] was 8.7 nM.
With `O=C(Nc1ccc(OC(F)(F)F)cc1)c1cnc(Cl)c(-c2cncc(F)c2)c1` [Example 77, 2-Chloro-5′-fluoro-N-(4-(trifluoromethoxy)phenyl)-[3,3′-bipyridine]-5-carboxamide], the IC50 with Ba/F3-BCR-ABL1-WT cells (48 hours) was 13 nM; on ABL1 (64-515) [3] it was 4.9 nM.
Consider `O=C(Nc1ccc(OC(F)(F)F)cc1)c1cnc(Cl)c(-c2cccnc2)c1` [Example 79, 2-Chloro-N-(4-(trifluoromethoxy)phenyl)-[3,3′-bipyridine]-5-carboxamide], for which the IC50 in the data set on Ba/F3-BCR-ABL1-WT cells (48 hours) is 6 nM; on ABL1 (64-515) [3], 10 nM.
For `O=C(Nc1ccc(OC(F)(F)F)cc1)c1cnc(Cl)c(-c2ccn[nH]2)c1` [Example 80, 6-Chloro-5-(1H-pyrazol-5-yl)-N-(4-(trifluoromethoxy)phenyl)nicotinamide], the IC50 on ABL1 (64-515) [3] turned out to be 55 nM.

These data come from patent publication US9315489B2, “Compounds and compositions for inhibiting the activity of ABL1, ABL2 and BCR-ABL1” (Novartis AG, priority 2012, dated 2016).
